{"source": "paper PMC6469224", "about": "“Tuning the properties of tris(hydroxypyridinone) ligands: efficient ^68Ga chelators for PET imaging” (Dalton Transactions (Cambridge, England : 2003), 2019)", "key": {"[1]": {"experiment": "Spectrophotometric titration, acid dissociation constants", "format": "physicochemical", "experimental": "(§1) The THP^Me and THP^H acid dissociation and conditional formation constants for their Ga^3+ and Fe^3+ complexes were investigated by spectrophotometric measurements. pKa and pM values (defined as –log[M^3+] when [ligand]total = 10 μM, [metal]total = 1 μM and pH = 7.4) are reported in Table 2. A full list of the measured conditional formation constants is provided in the ESI (Tables S1–S3 ^†), together with speciation plots calculated for the pH range of the titration. The pKa values for THP chelators are better described as intrinsic protonation constants since they represent the average pKa values of the three hydroxypyridinone units, which could not be distinguished by UV spectrophotometric measurements.[45] The first intrinsic pKa is attributed to the carbonyl group of the HP unit, and the second to the adjacent hydroxyl group. For THP^H a third intrinsic protonation constant, pKa3, associated with deprotonation of the N^1–H group in the pyridinone ring, exists outside the pH range used. The value of pKa3 was estimated to be 13 from the spectral change of the [Fe(THP^H)] complex in the pH 10–12.5 range. The measured protonation constants for THP^H are lower than those measured for deferiprone, but slightly higher than those for THP^Me (that is, THP^Me is slightly more acidic than THP^H).\nThe automated titration system consists of a Metrohm 765 Dosimat autoburette, a Mettler Toledo MP230 pH meter with SENTEK pH electrode (P11), and an HP 8453 UV-visible spectrophotometer with a Hellem quartz flow cuvette, with circulation driven by a Gilson Mini-plus #3 pump (speed capability 20 mL min^–1). A potassium chloride electrolyte solution (0.1 M) was used to maintain the ionic strength. The temperature of the test solutions was maintained in a thermostatic jacketed titration vessel at 25 ± 0.1 °C, using a Fisherbrand Isotemp water bath. The pH electrodes were calibrated using the software GLEE[47] with data obtained by titrating a volumetric standard HCl (0.1 M) in KCl (0.1 M) with KOH (0.1 M) under an atmosphere of argon. Analytical grade reagent materials were used in the preparation of all solutions. The solution under investigation was stirred vigorously during the experiment. For pKa determinations, a cuvette path length of 10 mm was used, while for metal stability constants determinations, a cuvette path length of 50 mm was used (experimental concentration was ca. 40 μM for iron complexes and ca. 10 μM for gallium complexes). All instruments were interfaced to a computer and controlled by an in-house program.\nThe automated titration adopted the following strategy: the pH of a solution was increased in increments of 0.1 pH unit by the addition of potassium hydroxide solution (0.1 M) from the autoburette. The pH readings were judged stable if they varied by less than 0.01 pH unit after a pre-set incubation period. […] The cycle was repeated until the predefined end point pH value was achieved. Titration data were analysed with the HypSpec2014 program[48],[49] […] The fitting spectra range for iron complexes was 400–700 nm while that for gallium complexes was 250–350 nm. pH values higher than 11.3 (outside the pH range in which electrode measurements are considered accurate) were neglected and re-calculated from the added KOH quantity (using “no pH” mode within the HypSpec2014 program). […] Metal affinities of compounds in this study were determined in competition with the metal hydrolysis species in a solution at a high pH (titrated up to pH 12.5). […]"}, "[2]": {"experiment": "Spectrophotometric determination of conditional formation constants, Ga^3+ complexes", "format": "binding", "experimental": "as §1\n(§2) The automated titration system consists of a Metrohm 765 Dosimat autoburette, a Mettler Toledo MP230 pH meter with SENTEK pH electrode (P11), and an HP 8453 UV-visible spectrophotometer with a Hellem quartz flow cuvette, with circulation driven by a Gilson Mini-plus #3 pump (speed capability 20 mL min^–1). A potassium chloride electrolyte solution (0.1 M) was used to maintain the ionic strength. The temperature of the test solutions was maintained in a thermostatic jacketed titration vessel at 25 ± 0.1 °C, using a Fisherbrand Isotemp water bath. […]\n(§3) The automated titration adopted the following strategy: the pH of a solution was increased in increments of 0.1 pH unit by the addition of potassium hydroxide solution (0.1 M) from the autoburette. The pH readings were judged stable if they varied by less than 0.01 pH unit after a pre-set incubation period. […] Titration data were analysed with the HypSpec2014 program[48],[49] […] The fitting spectra range for iron complexes was 400–700 nm while that for gallium complexes was 250–350 nm. pH values higher than 11.3 (outside the pH range in which electrode measurements are considered accurate) were neglected and re-calculated from the added KOH quantity (using “no pH” mode within the HypSpec2014 program). […] Metal affinities of compounds in this study were determined in competition with the metal hydrolysis species in a solution at a high pH (titrated up to pH 12.5). […]"}, "[3]": {"experiment": "Spectrophotometric determination of conditional formation constants, Fe^3+ complexes", "format": "binding", "experimental": "as §1, §2, §3"}, "[4]": {"details": "cited from earlier work"}, "[5]": {"details": "cited from earlier work", "remark": "listed apart in the source"}, "mouse": {"tested_on": "mouse", "experiment": "In vivo ^68Ga scavenging: acetate-buffered ^68Ga injected, then chelator; PET/CT and urine HPLC", "details": "female BALB/c mouse, THPMe at 45 minutes", "experimental": "The ability of THP^H to scavenge gallium in vivo was also investigated. […] This scavenging ability, shared with THP^Me (ESI, Fig. S8 ^†), reflects the rapid complexation kinetics and the extraordinary ability to transchelate gallium (which is known to bind rapidly and almost completely to transferrin when intravenously injected[44]) rapidly in the biological milieu.\nAll in vivo experiments were carried out in accordance with British Home Office regulations governing animal experimentation and complied with guidelines on responsibility in the use of animals in bioscience research of the U.K. Research Councils and Medical Research Charities, under U.K. Home Office project and personal licences. […] Respiration rate and bed temperature were monitored throughout. […] All reconstructed datasets were analysed using VivoQuant 1.21 software (inviCRO), which enables the co-registration of PET and CT images and the delineation of regions of interest (ROIs) for quantification of activity in specific organs. […] Urine was collected and analysed by reversed-phase HPLC (method 3).\nAn E&Z generator was eluted with 5 mL of pure HCl 0.1 M (Fluka analytical) in five 1 mL fractions and their activity measured by a Capintec radionuclide dose calibrator. […]\nQuantitative radiolabelling was obtained for all examined concentrations. […]"}, "[6]": {"details": "0.1 M KCl electrolyte solution, intrinsic pKa for THP ligands (carbonyl group of HP unit), 25 °C, 0.1 M KCl, read-out: pKa1"}, "[7]": {"details": "M3+ + 2 L− ⇄ [ML2]+, repeated as control"}, "[8]": {"details": "M3+ + 3 L− ⇄ [ML3], repeated as control"}, "[9]": {"details": "M3+ + L− ⇄ [ML]2+, repeated as control"}, "[10]": {"details": "–log[M^3+] at [M]total = 1 μM, [L]total = 10 μM, pH = 7.4"}}, "note": "Read-outs that look alike come from different tables or passages of the source.", "data": [{"smiles": "CC(=O)NC(CCC(=O)NCc1[nH]c(C)cc(=O)c1O)(CCC(=O)NCc1[nH]c(C)cc(=O)c1O)CCC(=O)NCc1[nH]c(C)cc(=O)c1O", "note": "[THP^H]", "values": [{"measurement": "pKa", "setting": "[1]; [6]", "result": 3.2}, {"measurement": "pKa", "setting": "[1]; 0.1 M KCl electrolyte solution, intrinsic pKa for THP ligands (hydroxyl group), 25 °C, 0.1 M KCl, read-out: pKa2", "result": 9.4}, {"measurement": "pKa", "setting": "[1]; 0.1 M KCl electrolyte solution, pH 10, N^1–H deprotonation, estimated from spectral change of [Fe(THP^H)] in pH 10–12.5, read-out: pKa3", "result": "~13"}]}, {"smiles": "Cc1c(O)c(=O)ccn1C", "note": "[Deferiprone]", "values": [{"measurement": "pKa", "setting": "[1]; [6]", "result": 3.5}, {"measurement": "pKa", "setting": "[1]; intrinsic pKa for THP ligands (hydroxyl group), 25 °C, 0.1 M KCl, read-out: pKa2", "result": 9.8}, {"measurement": "Log β [GaL]2+", "setting": "[2]; [7]", "result": 27.0}, {"measurement": "Log β [GaL3]", "setting": "[2]; [8]", "result": 37.4}, {"measurement": "Log β [GaL]2+", "setting": "[2]; [9]", "result": 14.4}, {"measurement": "pGa", "setting": "[2]; [10]", "result": 20.7}, {"measurement": "Log β [FeL]2+", "setting": "[3]; [7]", "result": 27.5}, {"measurement": "Log β [FeL3]", "setting": "[3]; [8]", "result": 37.5}, {"measurement": "Log β [FeL]2+", "setting": "[3]; [9]", "result": 15.0}, {"measurement": "pFe", "setting": "[3]; [10]", "result": 20.8}]}, {"smiles": "O=C(O)CN(CCN(CC(=O)O)Cc1ccccc1O)Cc1ccccc1O", "note": "[HBED, N,N-bis(2-hydroxybenzyl)ethylenediamine-N,N-diacetic acid]", "values": [{"measurement": "log KGa", "setting": "[4]", "result": 37.73}, {"measurement": "log KFe", "setting": "[5]", "result": 36.74}]}, {"smiles": "CC(=O)NC(CCC(=O)NCc1c(O)c(=O)cc(C)n1C)(CCC(=O)NCc1c(O)c(=O)cc(C)n1C)CCC(=O)NCc1c(O)c(=O)cc(C)n1C", "note": "[THP^Me, tris(1,6-dimethyl-3-hydroxypyridin-4-one)]", "values": [{"measurement": "In vivo ^68Ga binding and blood clearance after injection of the chelator", "setting": "mouse", "result": "able to bind 68Ga in vivo"}]}]}
